Reference: PubChem BioAssay AID2060506 (Molecular Pharmacology Branch, DTP, NCI, 2025)
Each block holds one molecule with its values, some of them ahead of it.

Tested on: 598228-144-R-J1-PDC complex spheroid viability
Assay: Anticancer human tumor 598228-144-R-J1-PDC patient-derived serous endometrial adenocarcinoma cell line growth inhibition [GQUAD]
Details: for IC50: curve of first compound; for viability, T/C: stronger effect = lower value
Method in brief: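 Viability of tumor cells grown as complex spheroids with endothelial and stromal cells, exposed to drug combinations. Top concentration at or near clinical Cmax (else 10 microM), diluted in half-log increments.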

[1] = second compound 0.0316 µM, first compound 0.0316 µM
[2] = second compound 0.0316 µM, first compound 0.1 µM
[3] = second compound 0.0316 µM, first compound 0.316 µM
[4] = second compound 0.0316 µM, first compound 1 µM
[5] = second compound 0.0316 µM, first compound 3.16 µM
[6] = second compound 0.0316 µM, first compound 10 µM
[7] = second compound 0.1 µM, first compound 0.0316 µM
[8] = second compound 0.1 µM, first compound 0.1 µM
[9] = second compound 0.1 µM, first compound 0.316 µM
[10] = second compound 0.1 µM, first compound 1 µM
[11] = second compound 0.1 µM, first compound 3.16 µM
[12] = second compound 0.1 µM, first compound 10 µM
[13] = second compound 0.316 µM, first compound 0.0316 µM
[14] = second compound 0.316 µM, first compound 0.1 µM
[15] = second compound 0.316 µM, first compound 0.316 µM
[16] = second compound 0.316 µM, first compound 1 µM
[17] = second compound 0.316 µM, first compound 3.16 µM
[18] = second compound 0.316 µM, first compound 10 µM
[19] = second compound 1 µM, first compound 0.0316 µM
[20] = second compound 1 µM, first compound 0.1 µM
[21] = second compound 1 µM, first compound 0.316 µM
[22] = second compound 1 µM, first compound 1 µM
[23] = second compound 1 µM, first compound 3.16 µM
[24] = second compound 1 µM, first compound 10 µM
[25] = second compound 3.16 µM, first compound 0.0316 µM
[26] = second compound 3.16 µM, first compound 0.1 µM
[27] = second compound 3.16 µM, first compound 0.316 µM
[28] = second compound 3.16 µM, first compound 1 µM
[29] = second compound 3.16 µM, first compound 3.16 µM
[30] = second compound 3.16 µM, first compound 10 µM
[31] = second compound 10 µM, first compound 0.0316 µM
[32] = second compound 10 µM, first compound 0.1 µM
[33] = second compound 10 µM, first compound 0.316 µM
[34] = second compound 10 µM, first compound 1 µM
[35] = second compound 10 µM, first compound 3.16 µM
[36] = second compound 10 µM, first compound 10 µM
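Note: spheroids exposed to the agents for one week before reading.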
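Throughout, for viability, T/C: percent of vehicle DMSO control viability so 100% = untreated growth.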

IC50 (second compound 0.0316 µM): 10000 nM
IC50 (second compound 0.1 µM): 445 nM
IC50 (second compound 0.316 µM): 1220 nM
IC50 (second compound 1 µM): 655 nM
IC50 (second compound 3.16 µM): < 31.6 nM
IC50 (second compound 10 µM): < 31.6 nM
SMILES: C=CCn1c(=O)c2cnc(Nc3ccc(N4CCN(C)CC4)cc3)nc2n1-c1cccc(C(C)(C)O)n1 + Cc1cnc(CNC(=O)c2c(=O)c3ccc(N4CCCN(C)CC4)nc3n3c2sc2ccccc23)cn1
viability, T/C [1]: 76%
viability, T/C [2]: 95%
viability, T/C [3]: 61.1%
viability, T/C [4]: 44.1%
viability, T/C [5]: 45.2%
viability, T/C [6]: 61.6%
viability, T/C [7]: 82.7%
viability, T/C [8]: 74.3%
viability, T/C [9]: 51.7%
viability, T/C [10]: 45.5%
viability, T/C [11]: 43.7%
viability, T/C [12]: 38%
viability, T/C [13]: 71.4%
viability, T/C [14]: 74.5%
viability, T/C [15]: 65.9%
viability, T/C [16]: 52.5%
viability, T/C [17]: 40.6%
viability, T/C [18]: 42.6%
viability, T/C [19]: 86.5%
viability, T/C [20]: 55.4%
viability, T/C [21]: 55.3%
viability, T/C [22]: 60.3%
viability, T/C [23]: 41.6%
viability, T/C [24]: 39.8%
viability, T/C [25]: 50.8%
viability, T/C [26]: 47.6%
viability, T/C [27]: 42.3%
viability, T/C [28]: 41%
viability, T/C [29]: 52.5%
viability, T/C [30]: 41.1%
viability, T/C [31]: 24.5%
viability, T/C [32]: 42.1%
viability, T/C [33]: 19.2%
viability, T/C [34]: 0.53%
viability, T/C [35]: 0.58%
viability, T/C [36]: 21.5%

IC50 (second compound 0.0316 µM): > 10000 nM
IC50 (second compound 0.1 µM): > 10000 nM
IC50 (second compound 0.316 µM): > 10000 nM
IC50 (second compound 1 µM): > 10000 nM
IC50 (second compound 3.16 µM): > 10000 nM
IC50 (second compound 10 µM): < 31.6 nM
SMILES: COc1ncnc(C2CC2)c1-c1ncc2cnn(Cc3ccc(-c4nc(C(F)(F)F)cn4C(C)C)cc3)c2n1 + Cc1cnc(CNC(=O)c2c(=O)c3ccc(N4CCCN(C)CC4)nc3n3c2sc2ccccc23)cn1
viability, T/C [1]: 81%
viability, T/C [2]: 88.8%
viability, T/C [3]: 72.9%
viability, T/C [4]: 86.8%
viability, T/C [5]: 102%
viability, T/C [6]: 85.4%
viability, T/C [7]: 67.3%
viability, T/C [8]: 79.3%
viability, T/C [9]: 95.1%
viability, T/C [10]: 68.4%
viability, T/C [11]: 63.9%
viability, T/C [12]: 78.2%
viability, T/C [13]: 82.6%
viability, T/C [14]: 77.5%
viability, T/C [15]: 60.9%
viability, T/C [16]: 73.4%
viability, T/C [17]: 80.7%
viability, T/C [18]: 65.2%
viability, T/C [19]: 77.6%
viability, T/C [20]: 76.4%
viability, T/C [21]: 69.8%
viability, T/C [22]: 62.8%
viability, T/C [23]: 71.2%
viability, T/C [24]: 90%
viability, T/C [25]: 62.3%
viability, T/C [26]: 65.9%
viability, T/C [27]: 60.5%
viability, T/C [28]: 53.8%
viability, T/C [29]: 57.8%
viability, T/C [30]: 65.1%
viability, T/C [31]: 38.7%
viability, T/C [32]: 24.8%
viability, T/C [33]: 31.6%
viability, T/C [34]: 24.8%
viability, T/C [35]: 34.6%
viability, T/C [36]: 23.6%
